The structures appear in SMILES notation.

The values that follow come from ChEMBL document CHEMBL1136318, “Synthesis and X-ray crystal structures of substituted fluorobenzene and benzoquinone inhibitors of the tissue factor VIIa complex” (Bioorg Med Chem Lett, 2003).

One assay addresses Coagulation factor X (Homo sapiens, UniProt P00742). The experiment in a line: Inhibitory activity against coagulation factor X.
A further assay concerns the target Prothrombin (Homo sapiens, UniProt P00734). The experiment in a line: Inhibitory activity against thrombin.

Chain of Coagulation factor X (P00742 41-179 limits assumed): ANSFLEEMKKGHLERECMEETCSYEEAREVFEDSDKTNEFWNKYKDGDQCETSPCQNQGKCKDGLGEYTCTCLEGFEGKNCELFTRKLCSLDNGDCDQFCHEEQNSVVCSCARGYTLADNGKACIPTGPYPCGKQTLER
Chain of Coagulation factor X (P00742 235-488 limits assumed): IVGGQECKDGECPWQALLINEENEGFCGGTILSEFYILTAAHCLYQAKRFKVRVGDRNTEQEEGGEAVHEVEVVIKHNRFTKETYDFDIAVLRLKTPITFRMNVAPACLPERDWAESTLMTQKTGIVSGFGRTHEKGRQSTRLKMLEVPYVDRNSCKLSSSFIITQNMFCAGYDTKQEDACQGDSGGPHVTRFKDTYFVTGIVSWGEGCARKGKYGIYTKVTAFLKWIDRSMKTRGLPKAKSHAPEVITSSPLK

For `CC(C)Nc1ccc(-c2cccc(N)c2)c(CC(=O)NCc2ccc(C(=N)N)cc2)c1F`, at Coagulation factor X, the 50% inhibitory concentration (IC50) is more than 30 µM.

At Prothrombin, `CC(C)/N=C1\C=C(O)C(c2ccccc2)=C(CC(=O)NCc2ccc(C(=N)N)cc2)C1=O` returned an IC50 of more than 30 µM.

By IC50 is commonly meant the concentration at which inhibition is half-maximal. Read a low IC50 as greater potency.
